{"source": "patent US8426194B2", "about": "“Methods and agents for screening for compounds capable of modulating VEGF expression” (PTC Therapeutics, Inc., priority 2003, dated 2013)", "tested_on": "VEGF UTRs", "assay": "Luciferase reporter inhibition in B9 (VEGF UTRs) versus B12 (no VEGF UTRs) cell lines", "format": "cell-based, human", "settings": "B9 with VEGF 5'- and 3'-UTRs, B12 without", "procedure": "A monocistronic reporter construct (pLuc/vegf5′+3′UTR) is under the transcriptional control of the CMV promoter and contains a VEGF IRES driving the luciferase reporter, which nucleic acid sequences are both upstream of a VEGF 3′-UTR. Stable cell lines are generated by transfecting 293 cells with the pLuc/vegf5′+3′UTR. A stable cell line is cultured under hygromycin B selection to create clonal cell lines consistent with protocols well known in the art. After two weeks of selection, clonal cell lines are screened for luciferase activity. The luciferase activity of several clonal cell lines (hereafter “clones”) are compared and normalized against total protein content. Clones are maintained under hygromycin B selection for more than three months with intermittent monitoring of luciferase activity. Clones are stable and maintain a high level of luciferase expression. Many clones, for example, about twenty, may be compared to each other with respect to luciferase activity. […] Particular parameters for clones are studied prior to selection for use in post-transcriptional, high-throughput screening (PTHTS). Relevant parameters for PTHTS include, but are not limited to, cell number, incubation time, DMSO concentration, and volume of substrate. The B9 cell line harbors the firefly luciferase reporter driven by the CMV promoter and flanked by the 5′- and 3′-UTRs of VEGF transcripts. […]"}
{"smiles": "COc1ccc(C[C@H](N)C(=O)N[C@H]2[C@@H](O)[C@H](n3cnc4c(N(C)C)ncnc43)O[C@@H]2CO)cc1", "note": "[puromycin]", "values": [{"measurement": "UTR specificity: luciferase inhibition in B9 versus B12 cell lines", "result": "does not change the difference of inhibition in luciferase expression in these two cell lines"}]}
